Assay results: patent US11066634B2, “Culture device and methods for enumerating mold colonies” (3M INNOVATIVE PROPERTIES COMPANY, priority 2013, dated 2021)
Like-named read-outs stand apart in the source and are kept apart here.

Legend:
C. glabrata = details: for Colony area (mean ± standard deviation): 91 hours
Protocol: (§1) Thin film culture devices were prepared as described above. Three yeast strains were serially diluted from a frozen stock to provide a final concentration of approximately 100 CFU per ml. The thin film culture devices were inoculated, incubated for 91 hours, imaged, and analyzed as described above.

Aspergillus niger [1] = system: Aspergillus niger
Protocol: A diluted suspension of Aspergillus niger was prepared as described in example 1. A 1 millimolar solution of EDTA was prepared by dissolving 3.7 milligrams of EDTA in 10 milliliters of Butterfield's buffer. The Aspergillus niger diluted suspension was added to the EDTA/Butterfield's to provide a cell concentration of approximately 5 cfu per milliliter. Five replicate devices were prepared by adding one milliliter of the inoculum to PYM plates according to the manufacturer's instructions. A set of control plates was prepared from a 5 cfu per ml solution of Aspergillus niger containing no EDTA.

C. guillermondi = details: for Colony area (mean ± standard deviation): 91 hours
Protocol: as §1

[2] = system: Aspergillus niger (ATCC #16484); details: for Colony Size Reduction: 1 mM vs 0 mM EDTA
Protocol: Fat free skim milk was purchased from a local grocery store. 3.7 milligrams of disodium EDTA dihydrate was added to 10 milliliters of the fat-free skim milk to provide a final concentration of 1 millimolar EDTA. A suspension of Aspergillus niger (ATCC #16484) was diluted in Butterfields buffer to a concentration of approximately 500 colony forming units per milliliter. 100 microliters of the diluted suspension was added to the milk sample. After briefly vortexing, 1 milliliter of the milk sample containing the mold was used to inoculate PYM plates according to the manufacturer's instructions. The PYM plates were incubated at 30° C. for 48 hours, followed by imaging and colony size analysis as described above. A control sample (without milk) was also prepared in Butterfield's buffer.

R. mucilaginosa = details: for Colony area (mean ± standard deviation): 91 hours
Protocol: as §1

[3] = system: mold species shown in Table 7; details: for some species; EDTA concentrations higher than 1 wt % of the dry powder coatings
Protocol: The mold species shown in Table 7 were serially diluted, inoculated, incubated, imaged, and analyzed as described for the A. niger cultures.

Aspergillus niger [4] = assay: Aspergillus niger on PYM plates with EGTA in the inoculum (Example 13); format: cell-based; details: for Reduction in colony area / Colony area: 48 hours; for 48 hour count / 72 hour count: total for three plates
Protocol: A 4-millimolar solution of ethylene glycol tetraacetic acid (EGTA) was prepared by dissolving 15.2 milligrams of EGTA in 10 milliliters of Butterfield's buffer. Serial two-fold dilutions were prepared to provide solutions containing 2 millimolar and 1 millimolar EGTA, respectively. “EGTA”, as used in the Examples, refers to ethylene glycol-bis(2-aminoethylether)-N,N,N′,N′-tetraacetic acid (67-42-5) obtained from Sigma-Aldrich (St. Louis, Mo.). A suspension of Aspergillus niger was diluted and added to the solutions as described in Example 12 to provide final cell concentrations of approximately 5 cfu per ml. Three replicate devices were prepared by inoculating 1 milliliter of the mold suspensions to PYM plates according to the manufacturer's instructions. Images of the plates were obtained after 48 hours and 72 hours of incubation, respectively. […] The average colony size after 48 hours of incubation was determined by imaging the plates and analyzing the images as described above.

[5] = EDTA at concentrations below 1%
[6] = EDTA concentrations higher than 1%

## disodium ethylenediamine tetraacetic acid dihydrate [EDTA]
C. glabrata; 0.5% EDTA
  Colony area (mean ± standard deviation): 487 ± 300 pixels
C. glabrata; 1% EDTA
  Colony area (mean ± standard deviation): 308 ± 201 pixels
C. glabrata; 2.3% EDTA
  Colony area (mean ± standard deviation): 0 ± 0 pixels
C. glabrata; 4.2% EDTA
  Colony area (mean ± standard deviation): 0 ± 0 pixels
C. glabrata; [5]
  effect on colony size: not affected
C. glabrata; [6]
  detection of colonies: not detected
Aspergillus niger [1]; 1 mM EDTA in inoculum, 48 hours
  Colony area: 1492 pixels
Aspergillus niger [1]; 1 mM EDTA in inoculum, 48 hr
  CFUs (48 hr): 15
Aspergillus niger [1]; 1 mM EDTA in inoculum, 72 hr
  CFUs (72 hr): 16
Aspergillus niger [1]; 1 mM EDTA, after 48 hours of incubation
  average colony diameter smaller than the control plates: approximately 20 fold
C. guillermondi; 0.5% EDTA
  Colony area (mean ± standard deviation): 490 ± 129 pixels
C. guillermondi; 1% EDTA
  Colony area (mean ± standard deviation): 201 ± 119 pixels
C. guillermondi; 2.3% EDTA
  Colony area (mean ± standard deviation): 381 ± 140 pixels
C. guillermondi; 4.2% EDTA
  Colony area (mean ± standard deviation): 162 ± 92 pixels
C. guillermondi; [5]
  effect on colony size: not affected
[2]; Buffer Control (Butterfield's buffer, without milk), 48 hours
  Colony Area (1 mM EDTA): 3276
[2]; Buffer Control, 48 hours
  Colony Size Reduction: −91%
[2]; Skim Milk sample, 30° C. for 48 hours
  Colony Area (1 mM EDTA): 3789
[2]; Skim Milk sample, 48 hours
  Colony Size Reduction: −86%
R. mucilaginosa; 0.5% EDTA
  Colony area (mean ± standard deviation): 251 ± 95 pixels
R. mucilaginosa; 1% EDTA
  Colony area (mean ± standard deviation): 148 ± 76 pixels
R. mucilaginosa; 2.3% EDTA
  Colony area (mean ± standard deviation): 0 ± 0 pixels
R. mucilaginosa; 4.2% EDTA
  Colony area (mean ± standard deviation): 0 ± 0 pixels
R. mucilaginosa; [5]
  effect on colony size: not affected
R. mucilaginosa; [6]
  detection of colonies: not detected
[3]
  delay in the appearance of visible colonies: a delay in the appearance of visible colonies was observed

## O=C(O)CN(CCOCCOCCN(CC(=O)O)CC(=O)O)CC(=O)O [EGTA, ethylene glycol-bis(2-aminoethylether)-N,N,N′,N′-tetraacetic acid]
Aspergillus niger [4]; 1 mM EGTA vs 0 mM control
  Reduction in colony area: −9%
Aspergillus niger [4]; 1 mM EGTA
  Colony area: 24107 pixels
  48 hour count: 12
  72 hour count: 12
Aspergillus niger [4]; 2 mM EGTA vs 0 mM control
  Reduction in colony area: −43%
Aspergillus niger [4]; 2 mM EGTA
  Colony area: 15177 pixels
  48 hour count: 14
  72 hour count: 14
Aspergillus niger [4]; 4 mM EGTA vs 0 mM control
  Reduction in colony area: −78%
Aspergillus niger [4]; 4 mM EGTA
  Colony area: 5772 pixels
  48 hour count: 11
  72 hour count: 11
